Test results from patent US11566030B2, “Substituted 2,6-dihydropyrrolo[3,4-c]pyrazoles as pyruvate kinase activators” (priority 2021, dated 2023).
Read-outs that look alike come from different tables or passages of the source.

Target: T1, Human pyruvate kinase R (PKR) (Homo sapiens, UniProt P30613)
T1 construct: Human pyruvate kinase R (PKR), residues 14-574; 6xHis-8xArg-SUMO (N, cleaved yes); host or cells: E. coli
Assay: Biochemical assay for activation of pyruvate kinase R (Kinase-Glo luminescence, ATP generation)
Conditions: for Emax: read-out: PKR % activation, maximal activation level achieved with each compound relative to the activation level achieved by AG-348 @ 10 μM; for PKR % activation: maximal activation level achieved with each compound relative to the activation level achieved by AG-348 @ 10 μM
Experimental: Human pyruvate kinase R (PKR), residues 14-574, and human pyruvate kinase M2, residues 1-531, were cloned into expression plasmids and obtained from ATUM Bio (Newark, Calif.). Proteins were translated as fusions with 6×-His,8×-Arg, and SUMO at the N-terminus. A third construct of human PKR was truncated, residues 50-574, and similarly cloned for use in crystallography experiments. All proteins were cloned, expressed in E. coli, and purified using similar protocols. Cells were grown at 30° C. in Luria-Bertani broth supplemented with 0.4% glucose to OD600=0.8 and induced with 0.4 mM IPTG at 16° C. for 18 hours. Cells were harvested by centrifugation, resuspended in 50 mM potassium phosphate pH 8.0, 500 mM NaCl, 25 mM imidazole pH 8.0, and 3 mM β-mercaptoethanol. Cells were lysed using a LM20 microfluidizer from Microfluidics (Westwood, Mass.). The crude lysate was immediately supplemented with 0.2 mM phenylmethylsulfonyl fluoride (PMSF) and centrifuged at 20,000 g for 20 minutes. The soluble fraction was subsequently incubated with 2 mL Ni-NTA (GE Healthcare) per 1,000 ODs for 1 hour at 4° C. Following incubation with the Ni-NTA resin, lysate was removed by pelleting resin at 2,500 g for 3 minutes and washed 3 times with 9 bed volumes of 50 mM potassium phosphate pH 8.0, 500 mM NaCl, 25 mM imidazole, and 3 mM β-mercaptoethanol. Following the batch wash Ni-NTA resin was loaded onto a gravity column and His-tagged protein was eluted with 6 bed volumes of 10 mM Tris/HCl pH 8.0, 200 mM NaCl, 500 mM imidazole, and 3 mM β-mercaptoethanol. Eluted protein was dialyzed overnight against 10 mM Tris/HCl pH 8.0, 200 mM NaCl, and 1 mM DTT and the 6×-His-8×-Arg-SUMO-tag was cleaved using a 20:1 molar ratio of protein: 3C protease. The protein was purified by anion exchange chromatography on a HiTrapQ or MonoQ 10/100 GL column (GE Healthcare) via a linear NaCl gradient and twice by size exclusion chromatography using a Superdex S200 26/60 column (GE Healthcare) run in 10 mM Tris/HCl pH 8.0, 200 mM NaCl, 10 mM MgCl2, 1 mM DTT. Proteins were concentrated to −12 mg/mL for crystallization and flash frozen for storage.
Biochemical assay for Activation of Pyruvate Kinase R
Activation of pyruvate kinase R (PKR) and pyruvate kinase M2 (PKM2) were measured using a luminescence based measurement of ATP generation and the Kinase-Glo luminescent kinase reagent kit.

[1] = PKR AC50 (nM), 0.1 nM PKR, 0.3 mM ADP, 0.1 mM PEP, 1% DMSO

T1 sequence (P30613 14-574): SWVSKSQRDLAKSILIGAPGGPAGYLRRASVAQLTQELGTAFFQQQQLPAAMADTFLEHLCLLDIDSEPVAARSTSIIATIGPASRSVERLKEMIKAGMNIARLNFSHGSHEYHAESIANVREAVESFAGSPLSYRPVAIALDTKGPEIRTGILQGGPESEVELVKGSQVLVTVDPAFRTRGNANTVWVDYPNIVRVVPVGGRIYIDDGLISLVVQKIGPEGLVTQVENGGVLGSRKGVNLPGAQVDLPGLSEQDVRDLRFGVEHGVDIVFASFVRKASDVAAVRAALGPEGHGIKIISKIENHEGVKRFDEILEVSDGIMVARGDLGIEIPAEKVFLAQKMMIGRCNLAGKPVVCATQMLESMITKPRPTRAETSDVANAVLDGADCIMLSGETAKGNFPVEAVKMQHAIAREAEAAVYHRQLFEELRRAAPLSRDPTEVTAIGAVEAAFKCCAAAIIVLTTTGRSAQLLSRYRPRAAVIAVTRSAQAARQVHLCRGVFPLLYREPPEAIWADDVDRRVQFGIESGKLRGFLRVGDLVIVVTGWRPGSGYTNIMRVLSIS

Row | SMILES | AC50 [1] | Emax | AC50 | PKR % activation
1 | C[C@](CO)(C(=O)N1Cc2cn(S(=O)(=O)c3cnn(CC(F)F)c3)nc2C1)c1ccccn1 (single isomer, unassigned) [Compound 10] | 116 nM | 112% |  | 
2 | O=C([C@H](O)c1ncccc1F)N1Cc2cn(S(=O)(=O)c3ccn(CC(F)F)n3)nc2C1 (single isomer, unassigned) [Compound 28] | 3400 nM | 85% |  | 
3 | O=C([C@@H](O)c1ncccc1F)N1Cc2cn(S(=O)(=O)c3ccn(CC(F)F)n3)nc2C1 (single isomer, unassigned) [Compound 29] | 420 nM | 86% |  | 
4 | O=C([C@H](CO)c1ncccc1F)N1Cc2cn(S(=O)(=O)c3ccn(CC(F)F)n3)nc2C1 (single isomer, unassigned) [Compound 31] |  | 45% | 3600 nM | 
5 | O=C([C@@H](CO)c1ncccc1F)N1Cc2cn(S(=O)(=O)c3ccn(CC(F)F)n3)nc2C1 (single isomer, unassigned) [Compound 32] |  | 114% | 40 nM | 
6 | O=C([C@H](O)c1ncccc1F)N1Cc2cn(S(=O)(=O)c3cnn(CC(F)F)c3)nc2C1 (single isomer, unassigned) [Compound 38] |  | 121% | 1800 nM | 
7 | O=C([C@@H](O)c1ncccc1F)N1Cc2cn(S(=O)(=O)c3cnn(CC(F)F)c3)nc2C1 (single isomer, unassigned) [Compound 39] |  | 90% | 120 nM | 
8 | O=C([C@H](O)c1ccccc1F)N1Cc2cn(S(=O)(=O)c3cnn(CC(F)(F)F)c3)nc2C1 (single isomer, unassigned) [Compound 40] | 81 nM | 53% |  | 
9 | O=C([C@H](O)c1ccccc1F)N1Cc2cn(S(=O)(=O)c3cnn(CC(F)(F)F)c3)nc2C1 (single isomer, unassigned) [Compound 41] | 3400 nM |  |  | 40%
10 | O=C([C@H](CO)c1ncccc1F)N1Cc2cn(S(=O)(=O)c3cnn(CC(F)F)c3)nc2C1 (single isomer, unassigned) [Compound 42] | 2100 nM | 102% |  | 
11 | O=C([C@@H](CO)c1ncccc1F)N1Cc2cn(S(=O)(=O)c3cnn(CC(F)F)c3)nc2C1 (single isomer, unassigned) [Compound 43] | 29 nM | 108% |  | 
12 | O=C([C@H](OCCO)c1ccccc1F)N1Cc2cn(S(=O)(=O)c3ccn(CC(F)(F)F)n3)nc2C1 (single isomer, unassigned) [Compound 85] | > 10000 nM |  |  | 103%
13 | O=C([C@H](OCCO)c1ccccc1F)N1Cc2cn(S(=O)(=O)c3ccn(CC(F)(F)F)n3)nc2C1 (single isomer, unassigned) [Compound 86] | 1.1 nM |  |  | 0%
14 | COCCOc1ccccc1[C@@H](CO)C(=O)N1Cc2cn(S(=O)(=O)c3cnn(CC(F)F)c3)nc2C1 (single isomer, unassigned) [Compound 92] |  | 0% |  | 
15 | COCCOc1ccccc1[C@H](CO)C(=O)N1Cc2cn(S(=O)(=O)c3cnn(CC(F)F)c3)nc2C1 (single isomer, unassigned) [Compound 93] |  | 180% | 120 nM | 
16 | O=C([C@H](CO)c1ccccc1OCCO)N1Cc2cn(S(=O)(=O)c3cnn(CC(F)F)c3)nc2C1 (single isomer, unassigned) [Compound 109] |  | 63% | 26 nM | 
17 | O=C([C@@H](CO)c1ccccc1OCCO)N1Cc2cn(S(=O)(=O)c3cnn(CC(F)F)c3)nc2C1 (single isomer, unassigned) [Compound 110] |  | 146% | 37 nM | 
18 | C[C@@](CO)(C(=O)N1Cc2cn(S(=O)(=O)c3cnn(CC(F)F)c3)nc2C1)c1ccccn1 (single isomer, unassigned) [Compound 123] | > 10000 nM | 123% |  | 
19 | O=C([C@H](CO)c1ccccc1)N1Cc2cn(S(=O)(=O)c3cnn(CC(F)F)c3)nc2C1 [Compound 1, (2S)-1-(2-{[1-(2,2-difluoroethyl)-1H-pyrazol-4-yl]sulfonyl}-2H,4H,5H,6H-pyrrolo[3,4-c]pyrazol-5-yl)-3-hydroxy-2-phenylpropan-1-one] | 5.4 nM | 97% |  | 
20 | O=C([C@H](CO)c1ccccc1F)N1Cc2cn(S(=O)(=O)c3cnn(CC(F)F)c3)nc2C1 [Compound 2, (2S)-1-(2-{[1-(2,2-difluoroethyl)-1H-pyrazol-4-yl]sulfonyl}-2H,4H,5H,6H-pyrrolo[3,4-c]pyrazol-5-yl)-2-(2-fluorophenyl)-3-hydroxypropan-1-one] | 4.7 nM | 110% |  | 
21 | O=C([C@H](CO)c1ccccc1F)N1Cc2cn(S(=O)(=O)c3cnn(CC(F)(F)F)c3)nc2C1 [Compound 3, (2S)-2-(2-fluorophenyl)-3-hydroxy-1-(2-{[1-(2,2,2-trifluoroethyl)-1H-pyrazol-4-yl]sulfonyl}-2H,4H,5H,6H-pyrrolo[3,4-c]pyrazol-5-yl)propan-1-one] | 7.1 nM | 108% |  | 
22 | O=C([C@H](O)c1ccccc1)N1Cc2cn(S(=O)(=O)c3cnn(CC(F)F)c3)nc2C1 [Compound 4, (2R)-1-(2-{[1-(2,2-difluoroethyl)-1H-pyrazol-4-yl]sulfonyl}-2H,4H,5H,6H-pyrrolo[3,4-c]pyrazol-5-yl)-2-hydroxy-2-phenylethan-1-one] |  | 62% | 22 nM | 
23 | O=C([C@H](CO)c1ccccc1F)N1Cc2cn(S(=O)(=O)c3cnn(CCF)c3)nc2C1 [Compound 5, (2S)-1-(2-{[1-(2-fluoroethyl)-1H-pyrazol-4-yl]sulfonyl}-2H,4H,5H,6H-pyrrolo[3,4-c]pyrazol-5-yl)-2-(2-fluorophenyl)-3-hydroxypropan-1-one] | 2.7 nM | 88% |  | 
24 | C[C@H](O)[C@@H](C(=O)N1Cc2cn(S(=O)(=O)c3cnn(CC(F)F)c3)nc2C1)c1ccccc1 [Compound 6, (2S,3S)-1-(2-{[1-(2,2-difluoroethyl)-1H-pyrazol-4-yl]sulfonyl}-2H,4H,5H,6H-pyrrolo[3,4-c]pyrazol-5-yl)-3-hydroxy-2-phenylbutan-1-one] |  | 86% | 11 nM | 
25 | C[C@@H](O)[C@@H](C(=O)N1Cc2cn(S(=O)(=O)c3cnn(CC(F)F)c3)nc2C1)c1ccccc1 [Compound 7, (2S,3R)-1-(2-{[1-(2,2-difluoroethyl)-1H-pyrazol-4-yl]sulfonyl}-2H,4H,5H,6H-pyrrolo[3,4-c]pyrazol-5-yl)-3-hydroxy-2-phenylbutan-1-one] |  | 102% | 17 nM | 
26 | O=C(N1Cc2cn(S(=O)(=O)c3cnn(CC(F)F)c3)nc2C1)C1(c2ncccc2Cl)COC1 [Compound 8, 3-chloro-2-(3-[2-[1-(2,2-difluoroethyl)pyrazol-4-ylsulfonyl]-4H,6H-pyrrolo[3,4-c]pyrazole-5-carbonyl]oxetan-3-yl)pyridine] | 5.7 nM | 103% |  | 
27 | O=C([C@H](CO)c1ccccc1Cl)N1Cc2cn(S(=O)(=O)c3cnn(CC(F)F)c3)nc2C1 [Compound 9, (2S)-2-(2-chlorophenyl)-1-[2-[1-(2,2-difluoroethyl)pyrazol-4-ylsulfonyl]-4H,6H-pyrrolo[3,4-c]pyrazol-5-yl]-3-hydroxypropan-1-one] |  | 126% | 3 nM | 
28 | Cc1c(S(=O)(=O)n2cc3c(n2)CN(C(=O)[C@H](CO)c2ccccc2)C3)cnn1CC(F)F [Compound 11, (2S)-1-(2-{[1-(2,2-difluoroethyl)-5-methyl-1H-pyrazol-4-yl]sulfonyl}-2H,4H,5H,6H-pyrrolo[3,4-c]pyrazol-5-yl)-3-hydroxy-2-phenylpropan-1-one] |  | 92% | 5.7 nM | 
29 | O=C([C@H](CO)c1ccccc1F)N1Cc2cn(S(=O)(=O)c3ccn(CC(F)F)n3)nc2C1 [Compound 12, (2S)-1-(2-{[1-(2,2-difluoroethyl)-1H-pyrazol-3-yl]sulfonyl}-2H,4H,5H,6H-pyrrolo[3,4-c]pyrazol-5-yl)-2-(2-fluorophenyl)-3-hydroxypropan-1-one] | 6.9 nM | 121% |  | 
30 | O=C([C@H](CO)c1ccccc1Cl)N1Cc2cn(S(=O)(=O)c3ccn(CC(F)F)n3)nc2C1 [Compound 13, (2S)-2-(2-chlorophenyl)-1-(2-{[1-(2,2-difluoroethyl)-1H-pyrazol-3-yl]sulfonyl}-2H,4H,5H,6H-pyrrolo[3,4-c]pyrazol-5-yl)-3-hydroxypropan-1-one] | 7 nM | 133% |  | 
